BindingDB's records for doi:10.1021/jm2005089 (National Human Genome Research Institute, 2011)

Target: T1, Polyunsaturated fatty acid lipoxygenase ALOX12 (Homo sapiens, UniProt P18054)
T1 sequence (P18054 whole entry): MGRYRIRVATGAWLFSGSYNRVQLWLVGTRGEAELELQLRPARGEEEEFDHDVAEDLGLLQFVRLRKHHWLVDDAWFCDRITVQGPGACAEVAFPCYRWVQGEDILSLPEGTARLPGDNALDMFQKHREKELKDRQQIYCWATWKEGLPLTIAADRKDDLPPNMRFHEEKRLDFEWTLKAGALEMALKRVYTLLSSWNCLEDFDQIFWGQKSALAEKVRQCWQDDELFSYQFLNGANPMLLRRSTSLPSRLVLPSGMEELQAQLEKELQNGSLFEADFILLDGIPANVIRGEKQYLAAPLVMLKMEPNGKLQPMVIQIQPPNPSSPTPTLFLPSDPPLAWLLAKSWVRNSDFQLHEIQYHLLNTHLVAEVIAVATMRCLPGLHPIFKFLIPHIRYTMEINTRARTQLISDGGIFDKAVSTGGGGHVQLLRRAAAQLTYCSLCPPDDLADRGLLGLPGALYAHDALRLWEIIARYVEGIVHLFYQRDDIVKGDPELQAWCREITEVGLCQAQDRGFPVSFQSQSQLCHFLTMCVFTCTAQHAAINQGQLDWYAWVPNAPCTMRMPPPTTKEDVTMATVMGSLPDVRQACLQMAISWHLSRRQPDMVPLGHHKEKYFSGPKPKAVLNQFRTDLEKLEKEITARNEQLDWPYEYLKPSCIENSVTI
Test: Competitive inhibition of human platelet-type N-terminally His6-tagged 12-lipoxygenase assessed as 12-HPETE formation using arachidonic acid by Michaelis-Menten equation analysis

With CC(=O)NC(c1cccs1)c1cc(Cl)c2cccnc2c1O (stereo unspecified) the Ki was 700 nM.
